The results in this text go back to paper PMC9077246, “Novel spirocyclic tranylcypromine derivatives as lysine-specific demethylase 1 (LSD1) inhibitors” (RSC Advances, 2018).

What all share (experiment): biochemical
One test has as its target T1, MAO-B (Homo sapiens, UniProt P27338).
T1 sequence (P27338 1-520): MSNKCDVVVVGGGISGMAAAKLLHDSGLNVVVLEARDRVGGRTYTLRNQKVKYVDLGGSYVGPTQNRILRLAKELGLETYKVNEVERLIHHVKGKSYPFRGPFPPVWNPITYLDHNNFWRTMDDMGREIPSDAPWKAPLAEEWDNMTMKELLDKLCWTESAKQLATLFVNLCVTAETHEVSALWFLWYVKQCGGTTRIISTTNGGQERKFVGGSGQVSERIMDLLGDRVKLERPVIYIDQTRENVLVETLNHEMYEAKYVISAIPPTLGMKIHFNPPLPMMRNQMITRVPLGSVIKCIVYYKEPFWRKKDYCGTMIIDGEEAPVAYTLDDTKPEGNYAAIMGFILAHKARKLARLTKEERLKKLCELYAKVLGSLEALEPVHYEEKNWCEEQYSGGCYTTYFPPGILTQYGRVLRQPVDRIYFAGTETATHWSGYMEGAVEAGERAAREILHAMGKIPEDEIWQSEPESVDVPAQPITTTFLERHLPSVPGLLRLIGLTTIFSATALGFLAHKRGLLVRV
To be noted: MAO-B, IC50, Table 1; mean ± SEM, eight-point experiments, three independent experiments.

For another test, the target named is T2, MAO-A (Homo sapiens, UniProt P21397).
T2 sequence (P21397 1-527): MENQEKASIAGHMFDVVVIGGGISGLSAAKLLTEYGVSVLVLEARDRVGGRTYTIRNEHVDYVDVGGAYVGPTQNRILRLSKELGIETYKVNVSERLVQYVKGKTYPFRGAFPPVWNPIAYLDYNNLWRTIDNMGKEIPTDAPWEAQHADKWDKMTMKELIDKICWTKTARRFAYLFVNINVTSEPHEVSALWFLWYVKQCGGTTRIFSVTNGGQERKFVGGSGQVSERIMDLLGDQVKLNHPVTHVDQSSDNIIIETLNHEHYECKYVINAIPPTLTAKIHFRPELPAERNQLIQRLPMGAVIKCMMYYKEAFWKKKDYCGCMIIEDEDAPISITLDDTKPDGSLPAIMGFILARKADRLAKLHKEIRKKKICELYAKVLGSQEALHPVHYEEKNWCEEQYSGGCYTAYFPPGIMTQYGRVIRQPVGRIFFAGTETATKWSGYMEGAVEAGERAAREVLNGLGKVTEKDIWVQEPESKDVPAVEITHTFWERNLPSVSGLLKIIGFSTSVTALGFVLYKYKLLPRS
To be noted: MAO-A, IC50, Table 1; mean ± SEM, eight-point experiments, three independent experiments.

The target in test [1] is Recombinant human LSD1 (172–852 aa) (Homo sapiens, UniProt O60341).
Procedure: LSD1 or LSD2 enzyme inhibition assay was performed with Lance Ultra LSD1 Histone H3-Lysine 4 Demethylase Assay kit (Perkin Elmer) according to the manufacturer's protocol. […] The test was carried out in triplicate. And the IC50 data was calculated using the software GraphPad Prism 5, and chosen the equation “sigmoidal dose–response (variable slope)” for curve fitting.

Counter-ions that a name gives are not always drawn.

Procedure for MAO-A: (§1) MAO-A and MAO-B enzymes were purchased from Sigma-Aldrich and the inhibition assay was tested with Promega MAO-Glo™ Assay kit according to the manufacturer's protocol. The luminescent signals were detected using Envision (PerkinElmer). The test was carried out in triplicate. And the IC50 data was calculated using the software GraphPad Prism 5, and chosen the equation “sigmoidal dose–response (variable slope)” for curve fitting.
Procedure for MAO-B: as §1

As for `COc1ccccc1CN[C@@H]1CC12CCc1ccccc12` (stereo in doubt) [Compound 14a, (2R)-N-(2-Methoxybenzyl)-2′,3′-dihydrospiro[cyclopropane-1,1′-inden]-2-amine], the IC50 against MAO-B is 12 ± 1 µM; against MAO-A, 5.9 ± 1.1 µM.

Regarding `Fc1ccccc1CN[C@H]1CC12CCc1ccccc12` (stereo in doubt) [Compound 15b, (2S)-N-(2-Fluorobenzyl)-2′,3′-dihydrospiro[cyclopropane-1,1′-inden]-2-amine], the figures for the concentration for half-maximal inhibition (IC50) against MAO-B and against MAO-A were 32 ± 3 µM and 2.5 ± 0.1 µM, respectively.

Turning to `COc1ccccc1CN[C@H]1CC12CCc1ccccc12` (stereo in doubt) [Compound 14b, (2S)-N-(2-Methoxybenzyl)-2′,3′-dihydrospiro[cyclopropane-1,1′-inden]-2-amine], the half-maximal inhibitory concentration (IC50) against MAO-B turned out to be 70 ± 35 µM; at MAO-A it was 1.7 ± 0.3 µM.

With `COc1ccc(Br)cc1CN[C@@H]1CC12CCc1ccccc12` (stereo in doubt) [Compound 16a, (2R)-N-(5-Bromo-2-methoxybenzyl)-2′,3′-dihydrospiro[cyclopropane-1,1′-inden]-2-amine], the IC50 amounted to 1.2 ± 0.2 µM against MAO-B and 3.7 ± 0.8 µM on MAO-A.

As to `COc1ccc(CN[C@@H]2CC23CCc2ccccc23)c(Cl)c1OC` (stereo in doubt) [Compound 20a, (2R)-N-(2-Chloro-3,4-dimethoxybenzyl)-2′,3′-dihydrospiro[cyclopropane-1,1′-inden]-2-amine], the IC50 against MAO-B amounted to 20 ± 1 µM; against MAO-A, 1.4 ± 0.1 µM.

For the compound `Fc1ccccc1CN[C@@H]1CC12CCc1ccccc12` (mixture of isomers) [Compound 15a, (2R)-N-(2-Fluorobenzyl)-2′,3′-dihydrospiro[cyclopropane-1,1′-inden]-2-amine], the concentration for half-maximal inhibition (IC50) amounted to 9.8 ± 2.3 µM against MAO-B and 4.8 ± 0.5 µM at MAO-A.

At MAO-A, `NC1CCC(N[C@@H]2C[C@H]2c2ccccc2)CC1` (stereo partly drawn) [Compound 6, N1-[(1R, 2S)-2-phenylcyclopropyl]cyclohexane-1,4-diamine dihydrochloride, reference compound] returned an IC50 of more than 100 µM.

With `COc1ccc(CNC2CC23CCc2ccccc23)cc1OC` [Compound 19a, (2R)-N-(3,4-Fimethoxybenzyl)-2′,3′-dihydrospiro[cyclopropane-1,1′-inden]-2-amine], the IC50 on MAO-B amounted to 15 ± 2 µM; against MAO-A, 11.7 ± 2.4 µM.

On to `O=C(CN[C@H]1CC12CCc1ccccc12)N1CCOCC1` (stereo in doubt) [Compound 25b, 2-(((2S)-2′,3′-Dihydrospiro[cyclopropane-1,1′-inden]-2-yl)amino)-1-morpholinoethan-1-one hydrochloride], for which, in test [1], the concentration for half-maximal inhibition (IC50) was 22 ± 4 µM.

Turning to `COc1ccc(CN[C@H]2CC23CCc2ccccc23)c(Cl)c1OC` (stereo in doubt) [Compound 20b, (2S)-N-(2-Chloro-3,4-dimethoxybenzyl)-2′,3′-dihydrospiro[cyclopropane-1,1′-inden]-2-amine], the IC50 came to 7 ± 0.7 µM against MAO-B and 5 ± 1.8 µM against MAO-A.

On to `COc1ccc(Br)cc1CN[C@H]1CC12CCc1ccccc12` (stereo in doubt) [Compound 16b, (2S)-N-(5-Bromo-2-methoxybenzyl)-2′,3′-dihydrospiro[cyclopropane-1,1′-inden]-2-amine], for which the values for the concentration for half-maximal inhibition (IC50) against MAO-B and against MAO-A were 7.7 ± 3.8 µM and 0.39 ± 0.19 µM, respectively.

In the case of `c1ccc(CN[C@@H]2CC23CCc2ccccc23)cc1` (mixture of isomers) [Compound 13a, (2R)-N-Benzyl-2′,3′-dihydrospiro[cyclopropane-1,1′-inden]-2-amine], the concentration for half-maximal inhibition (IC50) in test [1] was 3.3 ± 0.6 µM.

For `N[C@H]1CC12CCc1cc(-c3ccccc3)ccc12` (stereo in doubt) [Compound 28b, (2S)-5′-Phenyl-2′,3′-dihydrospiro[cyclopropane-1,1′-inden]-2-amine hydrochloride], the IC50 in test [1] turned out to be 2.7 ± 0.2 µM.

Take `O=C(CN[C@@H]1CC12CCc1ccccc12)N1CCOCC1` (stereo in doubt) [Compound 25a, 2-(((2R)-2′,3′-Dihydrospiro[cyclopropane-1,1′-inden]-2-yl)amino)-1-morpholinoethan-1-one hydrochloride]: in test [1], the half-inhibitory concentration (IC50) was 1.4 ± 0.1 µM.

A word on the IC50: it is the point on the concentration scale where inhibition reaches its midpoint.
